According to patent US20170080040A1, “DECOCTION OF OLIVE LEAVES” (priority 2014, published 2017):

Tests used:
mice CD-1 males = assay: Stimulating activity: effect on loss of straightening reflex (sleep) induced by ethanol in mice; assay type: in vivo; details: caffeine 60 mg/kg
Description: The antioxidant and anti-radical activity was studied on decoctions 1 and 2, respectively, by testing the decolorization of the radical cation ABTS^• (2.2′-azino-bis-3-ethylbenzothiazoline-6-sulphonic acid) (Re et al.—Free Rad. Biol. Med. 26: 1231, 1999) and by testing the neutralization of the radical 1,1-diphenyl-2-picrylhydrazyl (DPPH^•) (Brand-Williams et al.—Food Sci. Technol. 28: 25, 1995). Finally, decoctions 1 and 2 were studied for potential stimulating activity, verifying the effect on sleep induced by ethanol in mice according to the method reported by Yacoubi et al. (Yacoubi et al. —Neuropharmacology 45: 977, 2003).
The stimulating activity of the decoctions of olive leaves was evaluated on the basis of the reduction of the hypnotic effect induced by ethanol in the mice (Yacoubi et al.—Neuropharmacology 45: 977, 2003). The animals were housed in groups of 5 and kept for at least a week in the same place where the test was carried out, at a constant temperature (23±1° C.) and relative humidity (50-60%), with a fixed artificial light cycle (07.00-19.00). The experiment was carried out in conformity with the laws in force that regulate the use of animals for scientific purposes (Italian Legislative Decree 116 of 27 Jan. 1992 and the Directives of the European Communities Council of 24 Nov. 1986/86/609/EEC).
At the moment of the experiment, each animal was positioned individually in a cage. The lyophilized decoctions, dissolved in water, were administered to the mice (dose: 120 mg/kg; volume of solution administered: 10 ml/kg) by means of gastric intubation, 30 minutes before the inter-peritoneal injection of an aqueous composition of ethanol at 20% (v/v; 4 g/kg). The control animals were administered 10 ml/kg of physiological solution. The induction of ethanol induced sedation in the animals, with the loss of the straightening reflex. In every animal both the duration of the latency phase that elapsed between the injection of the ethanol and the loss of the straightening reflex, and the duration of the loss of the straightening reflex were measured. The stimulating activity was evaluated on the basis of both the increase in the latency phase and also on the reduction in the duration of the loss of the straightening reflex. The effect was compared to that of caffeine, at a dose of 60 mg/kg. Each treatment group consisted of 10 animals.
The values of IC50 were calculated on the basis of the linear regression of the straight lines that put the logarithm of the concentrations tested in relation to the reduction of the absorbance measured, using the appropriate function of an electronic spreadsheet. The in vivo data were analyzed according to the Student's t-test, accepting as significant the values of p<0.05.
The stimulating activity of decoctions 1 and 2 was evaluated in the mice, after oral administration of 120 mg/kg of lyophilized decoction (corresponding to 9.6 and 11.9) ml of decoction 1 and 2 liquid/kg), verifying the effect on the loss of straightening induced by the intraperitoneal injection of ethanol (4 g/kg). The parameters evaluated were the increase in the latency phase between the ethanol injection and the loss of the straightening reflex, and the duration of the loss of the straightening reflex (interval between the loss and the re-acquisition of the straightening reflex). As a reference compound, caffeine was used at a dose of 60 mg/kg (corresponding to an average dose of coffee equal to about 40 ml/kg).

[1] = Antioxidant activity: decoloring test of the cationic radical ABTS•+; details: mg lyophilized preparation per ml; absorbance at 734 nm; four determinations
Experimental: Biol. Med. 26: 1231, 1999) and by testing the neutralization of the radical 1,1-diphenyl-2-picrylhydrazyl (DPPH^•) (Brand-Williams et al.—Food Sci. Technol. 28: 25, 1995). […] (Yacoubi et al. —Neuropharmacology 45: 977, 2003). The antioxidant activity was evaluated according to the method reported by Re and collaborators (Re et al.—Free Rad. Biol. Med. 26: 1231, 1999). […] In the presence of an antioxidant the ABTS^•+ is reduced to colorless ABTS, determining a decoloring of the solution in which it is dissolved, which can be measured by spectrophotometry quantifying the absorbance at 734 nm. […] The antioxidant activity, expressed as IC50, was compared to that of Trolox, a similar water-soluble to vitamin E, and to that of an infusion of green tea, prepared with 10 g of leaves in 1 liter of water (from which 4.385 g of lyophilized infusion were obtained). For every sample four determinations were carried out and the result was expressed as average±standard deviation of the analyses done. The values of IC50 were calculated on the basis of the linear regression of the straight lines that put the logarithm of the concentrations tested in relation to the reduction of the absorbance measured, using the appropriate function of an electronic spreadsheet. The in vivo data were analyzed according to the Student's t-test, accepting as significant the values of p<0.05. […]

[2] = mice, oral 30 min before ethanol 4 g/kg i.p., decoctions 120 mg/kg lyophilized, n = 10
[3] = mice, oral, decoctions 120 mg/kg, ethanol 4 g/kg i.p.

Row | SMILES | reduction in the duration of the loss of the straightening reflex (mice CD-1 males; given as positive reduction, decoctions 120 mg/kg) | Duration Average ± E.S. (of the loss of the straightening reflex) (mice CD-1 males; [2]) | Latency Average ± E.S. (between ethanol injection and loss of the straightening reflex) (mice CD-1 males; [2]) | Duration Difference (%) with respect to the controls (mice CD-1 males; [3]) | Latency Difference (%) with respect to the controls (increase in the latency period) (mice CD-1 males; [3]) | Lyophilized Decoction IC50 Average ± D.S. (antioxidant activity, ABTS) [1]
1 | Cn1c(=O)c2c(ncn2C)n(C)c1=O [Caffeine, caffeine] | 43% | 23.5 ± 3.3 min | 215.7 ± 18.2 s | −43% | 48% | –
2 | Cc1c(C)c2c(c(C)c1O)CCC(C)(C(=O)O)O2 (stereo not drawn) [Trolox] | – | – | – | – | – | 30 µg/mL
